One data set can be described thus: Aqueous solubility. The data set is classed as physicochemical. The settings on record: water.
A further data set concerns human blood platelets. In words: In vitro inhibition of ADP-induced human platelet aggregation in platelet-rich plasma (aggregometer method of Born). The settings on record: for IC50: Homo sapiens, Platelet, read-out: IC50 vs ADP in human PRP, human PRP, 3 min preincubation at about 37° C., final ADP 5.86 mM (so in the source).
Where [1] appears, read: not marked as free base, read-out: Aqueous Solubility.
Setting [2] is: free base (* footnote), read-out: Aqueous Solubility of Free Base.

Results on 15 compounds are retold here after patent US5208237A, “7-oxypropylsulfonamido-imidazo[4,5-b]quinolin-2-ones” (Bristol-Meyers Squibb Company, priority 1992, dated 1993).

Converted amounts (≈) assume the structure as drawn. Structures can show the parent of a compound that is named as a salt. Where two headings read alike, the source gives them in different places.

Protocol for human blood platelets: The aggregometer method of Born, G. V. R., J. Physiol., (London), 162, 67-68, (1962) as modified by Mustard, J. F., et al., J. Lab. Clin. Med., 64, 548-599, (1964) was used to assess the in vitro activity of the various compounds as to the inhibition of adenosine diphosphate (ADP) and collagen-induced platelet aggregation. The human volunteer donor's arm is cleansed with 70% ethyl alcohol. A sterile 20 ml syringe and needle are used to withdraw 20 ml of blood. The blood is immediately added to a test tube containing 3.8% sodium citrate to prevent clotting (1 part citrate to 9 parts blood).
Platelet rich plasma (PRP) was separated by centrifugation for 10 minutes at 1000 rpm (140xg) from citrated (3.8%) human blood. All glassware used for preparation of PRP is silicon treated. ADP in final concentration of 0.5 μg/mL or 0.05 mL of a collagen suspension prepared according to the method described by Evans, G., et al., J. Exp. Med., 128, 877-894, (1968) was used to induce aggregation. The various compounds tested were dissolved in dimethylsulfoxide (DMSO) so that 5 μl added to the platelet rich plasma would yield the desired test concentration. Vehicle control trials were done and compared with aggregation induced in platelet rich plasma containing various concentrations of the test compounds. Dose response curves were obtained and Inhibitor Concentration (IC50) values calculated.
The test compounds were incubated at about 37° C. in PRP for about 3 minutes prior to the addition of sufficient ADP to provide a final ADP concentration of 5.86 mM.

By solubility is commonly meant the dissolved amount per volume that the medium holds. For orientation: IC50 means the concentration at which inhibition is half-maximal. Take `Cl.O=c1[nH]c2cc3cc(OCCCS(=O)(=O)N4CCN(c5nc6ccccc6s5)CC4)ccc3nc2[nH]1` [Compound 10i, 1-(Benzothiazol-2-yl)-4-[[3-[(2,3-dihydro-2-oxo-1H-imidazo[4,5-b]quinolin-7-yl)oxy]propyl]sulfonyl]piperazine hydrochloride]: the solubility in the data set “Aqueous solubility” (setting [1]) is about 1 mg/mL. Moreover, the IC50 with human blood platelets was determined as 2.8 mg/L.
In the case of `Cl.Cl.O=c1[nH]c2cc3cc(OCCCS(=O)(=O)N4CCN(Cc5ccccc5)CC4)ccc3nc2[nH]1` [Compound 10c, 1-[[3-[(2,3-Dihydro-2-oxo-1H-imidazo[4,5-b]quinolin-7-yl)oxy]propyl]sulfonyl]-4-(phenylmethyl)piperazine dihydrochloride], the solubility in “Aqueous solubility” (setting [1]) is over 20 mg/mL. In the data set with human blood platelets, the IC50 came out at 0.039 mg/L.
Consider `O=c1[nH]c2cc3cc(OCCCS(=O)(=O)N4CCNCC4)ccc3nc2[nH]1` [Compound 10a, 1-[[3-[(2,3-Dihydro-2-oxo-1H-imidazo[4-5-b]quinolin-7-yl)oxy]propyl]sulfonyl]piperazine dihydrochloride], for which, in “Aqueous solubility” (setting [1]), the solubility is over 20 mg/mL. The “IC50 vs ADP in human PRP” value in the data set with human blood platelets (human PRP, 3 min preincubation at about 37° C., final ADP 5.86 mM (so in the source), dihydrochloride) is 6.4 mg/L.
As to `Cl.Cl.O=c1[nH]c2cc3cc(OCCCS(=O)(=O)N4CCN(CC5CCCCC5)CC4)ccc3nc2[nH]1` [Compound 10g, 1-[[3-[(2,3-Dihydro-2-oxo-1H-imidazo[4,5-b]quinolin-7-yl)oxy]propyl]sulfonyl]-4-(cyclohexylmethyl) piperazine dihydrochloride], the solubility in “Aqueous solubility” (setting [1]) is over 20 mg/mL. Further, the IC50 in the data set on human blood platelets came out at 0.064 mg/L.
Take `O=c1[nH]c2cc3cc(OCCCS(=O)(=O)N4CCNCC4)ccc3nc2[nH]1` [Compound 8, 1-[[3-[(2,3-Dihydro-2-oxo-1H-imidazo[4,5-b]quinolin-7-yl)oxy]propyl]sulfonyl]piperazine]: the solubility in “Aqueous solubility” (setting [2]) was about 1 mg/mL (≈ 2550 µM). The IC50 with human blood platelets worked out at 7.2 mg/L (≈ 18.4 µM).
Take `O=c1[nH]c2cc3cc(OCCCS(=O)(=O)N4CCN(CCc5ccccc5)CC4)ccc3nc2[nH]1` [Compound 10k, 3-[[(2,3-Dihydro-2-oxo-1H-imidazo[4,5-b]quinolin-7-yl)oxy]propyl]sulfonyl]-4-(2-phenylethyl)piperazine dihydrochloride]: the solubility in the data set “Aqueous solubility” (setting [1]) is under 10 mg/mL. Also, the 50% inhibitory concentration (IC50) with human blood platelets was found to be 0.6 mg/L.
The like results for `Cl.Cl.O=c1[nH]c2cc3cc(OCCCS(=O)(=O)N4CCN(c5nc6ccccc6o5)CC4)ccc3nc2[nH]1` [Compound 10h, 1-(Benzoxazol-2-yl)-4-[[3-[(2,3-dihydro-2-oxo-1H-imidazo[4,5-b]quinolin-7-yl)oxy]propyl]sulfonyl]piperazine dihydrochloride] were, in that order, over 20 mg/mL and 1.4 mg/L.
Regarding `Cl.Cl.O=c1[nH]c2cc3cc(OCCCS(=O)(=O)N4CCN(Cc5cccc(C(F)(F)F)c5)CC4)ccc3nc2[nH]1` [Compound 10m, 1-[[3-[(2,3-Dihydro-2-oxo-1H-imidazo[4,5-b]quinolin-7-yl)oxy]propyl]sulfonyl]-4-[(3-trifluoromethylphenyl)methyl]piperazine dihydrochloride], the solubility in the data set “Aqueous solubility” (setting [1]) was about 2 mg/mL. The IC50 in the data set with human blood platelets was found to be 0.2 mg/L.
The like results for `Cl.Cl.O=c1[nH]c2cc3cc(OCCCS(=O)(=O)N4CCN(CCC5CCCCC5)CC4)ccc3nc2[nH]1` [Compound 10j, 1-[[3-[(2,3-Dihydro-2-oxo-1H-imidazo[4,5-b]quinolin-7-yl)oxy]propyl]sulfonyl]-4-(2-cyclohexylethyl) piperazine dihydrochloride] were, in that order, under 5 mg/mL and 1.2 mg/L.
The like results for `Cl.Cl.O=c1[nH]c2cc3cc(OCCCS(=O)(=O)N4CCN(Cc5ccc(F)cc5)CC4)ccc3nc2[nH]1` [Compound 10d, 1-[[3-[(2,3-Dihydro-2-oxo-1H-imidazo[4,5-b]quinolin-7-yl)oxy]propyl]sulfonyl]-4-(4-fluorophenylmethyl) piperazine dihydrochloride] were, in that order, over 20 mg/mL and 0.16 mg/L.
The like results for `Cl.Cl.O=c1[nH]c2cc3cc(OCCCS(=O)(=O)N4CCN(Cc5ccc(Cl)cc5)CC4)ccc3nc2[nH]1` [Compound 10e, 1-[[3-[(2,3-Dihydro-2-oxo-1H-imidazo[4,5-b]quinolin-7-yl)oxy]propyl]sulfonyl]-4-(4-chlorophenylmethyl) piperazine dihydrochloride] were, in that order, over 20 mg/mL and 0.32 mg/L.
On to `COc1ccc(CN2CCN(S(=O)(=O)CCCOc3ccc4nc5[nH]c(=O)[nH]c5cc4c3)CC2)cc1` [Compound 10f, 1-[[3-[(2,3-Dihydro-2-oxo-1H-imidazo[4,5-b]quinolin-7-yl)oxy]propyl]sulfonyl]-4-[(4-methoxyphenylmethyl)piperazinedihydrochloride], for which the solubility in the data set “Aqueous solubility” (setting [1]) was over 20 mg/mL. For the same compound, the IC50 in the data set with human blood platelets was 0.27 mg/L.
As for `CCC(CC)CN1CCN(S(=O)(=O)CCCOc2ccc3nc4[nH]c(=O)[nH]c4cc3c2)CC1` [Compound 10l, 1-[[3-(2,3-Dihydro-2-oxo-1H-imidazo-[4,5-b]quinolin-7-yl)oxy]propyl]sulfonyl]-4-(2-ethylbut-1-yl)piperazine dihydrochloride], the solubility in “Aqueous solubility” (setting [1]) is over 10 mg/mL. Further, the IC50 with human blood platelets turned out to be 0.09 mg/L.
On to `O=c1[nH]c2cc3cc(OCCCS(=O)(=O)N4CCN(Cc5ccccc5)CC4)ccc3nc2[nH]1` [Compound 9c], for which the solubility in “Aqueous solubility” (setting [2]) is about 1 mg/mL (≈ 2080 µM). Besides, in the data set with human blood platelets, the IC50 came out at 0.059 mg/L (≈ 0.123 µM).
As for `O=CN1CCN(S(=O)(=O)CCCOc2ccc3nc4[nH]c(=O)[nH]c4cc3c2)CC1` [Compound 7, 3-[[(2,3-Dihydro-2-oxo-1H-imidazo[4,5-b]quinolin-7-yl)oxy]propyl]sulfonyll-1-piperazinecarboxaldehyde], the solubility in “Aqueous solubility” (setting [2]) was under 1 mg/mL. Moreover, in the data set on human blood platelets, the IC50 worked out at 5.6 mg/L (≈ 13.4 µM).
